Laboratory results reported in PubChem BioAssay (NCI).
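How tested: cells in 96-well plates exposed to compound for 48 hours at five concentrations. GI50 is the concentration that inhibits growth by half. TGI denotes the concentration required for complete inhibition of growth.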

Legend:
Experiment in all cases: inhibition of tumour cell growth, NCI panel, 48 h
[1] = tested on: PC-3 prostate
[2] = tested on: HL-60(TB) leukemia
[3] = tested on: OVCAR-3 ovarian
[4] = tested on: SR leukemia
[5] = tested on: 786-0 renal
[6] = tested on: SK-MEL-28 melanoma
[7] = tested on: UACC-257 melanoma
[8] = tested on: OVCAR-5 ovarian
[9] = tested on: HOP-92 NSCLC
[10] = tested on: SN12C renal
[11] = tested on: SF-268 CNS
[12] = tested on: SW-620 colon
[13] = tested on: UACC-62 melanoma
[14] = tested on: HCT-116 colon
[15] = tested on: MCF7 breast
[16] = tested on: A498 renal
[17] = tested on: ACHN renal
[18] = tested on: RPMI-8226 leukemia
[19] = tested on: M14 melanoma
[20] = tested on: CCRF-CEM leukemia
[21] = tested on: SF-539 CNS
[22] = tested on: TK-10 renal
[23] = tested on: UO-31 renal
[24] = tested on: MALME-3M melanoma
[25] = tested on: MDA-MB-231 breast
[26] = tested on: OVCAR-8 ovarian
[27] = tested on: BT-549 breast
[28] = tested on: HCT-15 colon
[29] = tested on: U251 CNS
[30] = tested on: DU-145 prostate
[31] = tested on: COLO 205 colon
[32] = tested on: NCI-H522 lung
[33] = tested on: HT29 colon
[34] = tested on: SF-295 CNS
[35] = tested on: EKVX NSCLC
[36] = tested on: NCI-H460 lung
[37] = tested on: A549 NSCLC
[38] = tested on: MOLT-4 leukemia
[39] = tested on: HOP-62 NSCLC
[40] = tested on: HCC-2998 colon
[41] = tested on: CAKI-1 renal
[42] = tested on: SNB-75 CNS
[43] = tested on: T-47D breast
[44] = tested on: SK-OV-3 ovarian
[45] = tested on: NCI/ADR-RES ovarian
[46] = tested on: HS 578T breast
[47] = tested on: NCI-H23 lung

## CCCCCCCCCCCCCCCC[N+]1(C)CCOCC1
[1]
  GI50: 655 nM
  TGI: 2430 nM
[2]
  GI50: 1310 nM
  TGI: 3350 nM
[3]
  GI50: 1560 nM
  TGI: 3610 nM
[4]
  GI50: 1280 nM
  TGI: 4660 nM
[5]
  GI50: 1520 nM
  TGI: 2990 nM
[6]
  GI50: 2420 nM
  TGI: 7690 nM
[7]
  GI50: 4000 nM
  TGI: 17200 nM
[8]
  GI50: 1140 nM
  TGI: 2890 nM
[9]
  GI50: 499 nM
  TGI: 2640 nM
[10]
  GI50: 2600 nM
  TGI: 8920 nM
[11]
  GI50: 1630 nM
  TGI: 4220 nM
[12]
  GI50: 2050 nM
  TGI: 10400 nM
[13]
  GI50: 1610 nM
  TGI: 3830 nM
[14]
  GI50: 1590 nM
  TGI: 3870 nM
[15]
  GI50: 2720 nM
  TGI: 13200 nM
[16]
  GI50: 3380 nM
  TGI: 21500 nM
[17]
  GI50: 2930 nM
  TGI: 13900 nM
[18]
  GI50: 1300 nM
  TGI: 4060 nM
[19]
  GI50: 1320 nM
  TGI: 2980 nM
[20]
  GI50: 1090 nM
  TGI: 3020 nM
[21]
  GI50: 1870 nM
  TGI: 4070 nM
[22]
  GI50: 1860 nM
  TGI: 4170 nM
[23]
  GI50: 13400 nM
  TGI: 31600 nM
[24]
  GI50: 2380 nM
  TGI: 6710 nM
[25]
  GI50: 1390 nM
  TGI: 3940 nM
[26]
  GI50: 2530 nM
  TGI: 8840 nM
[27]
  GI50: 2200 nM
  TGI: 4700 nM
[28]
  GI50: 2550 nM
  TGI: 7990 nM
[29]
  GI50: 1060 nM
  TGI: 2340 nM
[30]
  GI50: 2410 nM
  TGI: 6790 nM
[31]
  GI50: 1150 nM
  TGI: 2420 nM
[32]
  GI50: 2090 nM
  TGI: 5070 nM
[33]
  GI50: 766 nM
  TGI: 3000 nM
[34]
  GI50: 1800 nM
  TGI: 6290 nM
[35]
  GI50: 3420 nM
  TGI: 20100 nM
[36]
  GI50: 1960 nM
  TGI: 4730 nM
[37]
  GI50: 2790 nM
  TGI: 12200 nM
[38]
  GI50: 1600 nM
  TGI: 3690 nM
[39]
  GI50: 1340 nM
  TGI: 3150 nM
[40]
  GI50: 1210 nM
  TGI: 2750 nM
[41]
  GI50: 5320 nM
  TGI: 22500 nM
[42]
  GI50: 868 nM
  TGI: 2460 nM
[43]
  GI50: 4680 nM
  TGI: 25200 nM
[44]
  GI50: 2200 nM
  TGI: 7360 nM
[45]
  GI50: 18100 nM
  TGI: 44900 nM
[46]
  GI50: 2230 nM
  TGI: 8440 nM
[47]
  GI50: 2200 nM
  TGI: 12200 nM
